Assay results taken from PubChem BioAssay AID624491 (Broad Institute, 2012).
The source made the active and inactive calls.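 How the source made its calls: active means fitted curve crossing a set activation limit at or below the highest valid dose tested; inconclusive means flat fit at 30 to 70% activation, or poor fit; inactive means the rest, including signal decreases.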

The compounds below were run on D54 ERlucT glycosylation luciferase reporter, luminescence, 24 h (assay: N-linked glycosylation inhibitors, luciferase reporter, dose response, D54 ERlucT cells, luminescence, cherry-picks (AID 624491);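 further: signal gain reflects blocked N-linked glycosylation of a luciferase reporter; actives raise luciferase signal so AC26 marks activators of the reporter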).

Row | Structure (SMILES) | AC26
1 | Cc1ccc(NC(=O)CSc2nnc(-c3ccco3)c(-c3ccco3)n2)cc1 | 1240 nM
2 | COc1ccc(NC(=O)c2nc(C)c(C3(C)CC(c4ccccc4)=NO3)s2)cc1 (stereo not given) | 4020 nM
3 | C[C@H]1CN([C@@H](C)CO)C(=O)Cc2cc(NC(=O)CCC(F)(F)F)ccc2O[C@H]1CN(C)S(=O)(=O)c1ccc(Cl)cc1 | 2260 nM
4 | c1ccc2c(c1)c1c(c3ccccc32)CN2CCCC2C1 (stereo not given) | 2700 nM
5 | Cc1[nH]c2ccc(C(=O)N3CCN(c4cccc(Cl)c4)CC3)cc2c1C | 8650 nM
6 | CCN1C(=O)c2cccc3c(S(=O)(=O)NCC4CCCO4)ccc1c23 (stereo not given) | 2990 nM
7 | Cc1nn(C(C)(C)C)c(OC(=O)c2ccc3c(c2)OCO3)c1Sc1ccccc1 | 3070 nM
8 | COc1cc(C2=NOC(C(=O)NCc3ccco3)C2)cc(OC)c1OC (stereo not given) | 1030 nM
9 | O=c1[nH]c(=O)n([C@H]2C[C@H](O)[C@@H](CO)O2)cc1I | 5190 nM
10 | Cc1cccc2c(C(=O)N3CCN(c4ccccc4)CC3)cc(-c3ccncc3)nc12 | 198 nM
11 | COc1cc(NC(C(=O)Nc2cccc(C(C)=O)c2)c2ccccc2)cc(OC)c1OC (stereo not given) | 890 nM
12 | COc1ccc(C2=NOC(C(=O)NCc3cccs3)C2)cc1 (stereo not given) | 1010 nM
13 | CCN(CC)S(=O)(=O)c1cccc(C(=O)OCC(=O)Nc2ccc3c(c2)c2ccccc2n3CC)c1 | 4110 nM
14 | COc1ccc2c(c1)OC[C@H]1[C@H]2N2C(=O)c3cc(Cl)ccc3NC(=O)[C@@]2(C)[C@H]1c1ccccc1 | 1250 nM
15 | O=C(NCc1cccs1)C1CC(c2ccc(Cl)c(Cl)c2)=NO1 (stereo not given) | 5400 nM
16 | Oc1cccc(Nc2c3ccccc3nc3ccccc23)c1 | 1440 nM
17 | COc1ccc(C(=O)CSc2nnc(-c3cc4ccccc4cc3O)n2Cc2ccco2)cc1 | 1840 nM
18 | Cc1cccn2c(=O)c3cc(C(=O)NC4CCCC4)n(C)c3nc12 | 15100 nM
19 | COc1cccc(C(=O)Nc2sc3c(c2C#N)CCN(C(C)=O)C3)c1 | 9.19 nM
20 | CCOc1ccc(OCC)c(NC(=O)c2nnn(CC(=O)Nc3cc(C)cc(C)c3)c2N)c1 | 6440 nM
21 | COc1ccc2c(c1)[C@H]1[C@H](CO2)[C@H](c2ccccc2)[C@]2(C)C(=O)Nc3ccc(Cl)cc3C(=O)N12 | 426 nM
22 | COC(=O)c1cc(C(=O)c2c(C)cc3ccccn23)cc([N+](=O)[O-])c1 | 1770 nM
23 | C(=C\c1nccc2c1[nH]c1ccccc12)/c1ccccc1 | 4680 nM
24 | COc1cc(C)c2sc3ccccc3c(=O)c2c1NCCN(C)C | 468 nM
25 | COC(=O)c1cn(C(=O)/C=C/c2ccc(OC)c(OC)c2)c2ccccc12 | 1640 nM
26 | CC1=Nc2cc(C(=O)NCC3CCCO3)ccc2Sc2ccc(C)cc21 (stereo not given) | 662 nM
27 | CC(=O)Nc1ccc(NC(=O)c2ccc(-c3c(C)noc3C)c3ccoc23)cc1 | 1350 nM

Row | Structure (SMILES) | AC26
28 | CN=c1sc(C(=O)Nc2cccc(Cl)c2)cc(=O)n1C | 349 nM
29 | CCOC(=O)/C(=C/c1c(C)n(C)c2ccc([N+](=O)[O-])cc12)C(C)=O | 4230 nM
30 | Cc1cc(NC(=O)COC(=O)c2ccc(S(=O)(=O)N3CCCc4ccccc43)cc2)no1 | 665 nM
31 | O=C1CCCC2=C1C1(CCCCC1)N=C(Nc1nc3ccccc3o1)N2 | 5790 nM
32 | COc1ccc(/C=C2\SC(=O)N(CCNC(=O)C3=COCCO3)C2=O)cc1 | 658 nM
33 | CN(C)S(=O)(=O)c1ccc(N2CCCC2)c(C(=O)Nc2nc(-c3ccc(F)cc3)cs2)c1 | 1550 nM
34 | CC(C)(C)c1ccc(OCc2ccc(C(=O)N3CCOCC3)o2)cc1 | 2160 nM
35 | CC(C)N(CC(=O)Nc1ccc(Cl)cc1C(F)(F)F)C(=O)CCl | 14500 nM
36 | Cc1cc(C)c2c(c1)cc(C)c1nnc(SCC(=O)Nc3cc(C)on3)n12 | 12000 nM
37 | COc1cc(/C=N/NC(=O)c2cc(-c3c(C)nn(-c4ccccc4)c3C)n[nH]2)ccc1O | 1390 nM
38 | COc1ccc(Nc2cc(C)nc(-n3nc(C)cc3C)n2)cc1 | 193 nM
39 | COc1ccc([C@@H]2[C@@H]3C(=O)N(C(C)(C)C)C(=O)[C@@H]3[C@]3(Cc4ccccc4)C(=O)N(c4cccc(C)c4)C(=O)N23)cc1 | 1300 nM
40 | CCc1ccc(Nc2n[n+](-c3ccccc3)c(-c3ccc(N(CC)CC)cc3)s2)cc1 | 7030 nM
41 | Cc1ccc(-c2nc(NCCN(C)C)c3ccccc3n2)cc1 | 4940 nM
42 | CN(C)CCNc1cccc2sc3ccc(O)cc3c(=O)c12 | 500 nM
43 | Cc1ccc(-c2nc(N(C)C3CCN(C)CC3)c3ccccc3n2)cc1 | 4000 nM
44 | CC1CN(C(=O)c2ccc(COc3ccc4ccccc4c3)o2)CC(C)O1 (stereo not given) | 11200 nM
45 | COC(=O)Nc1nc(-c2ccccc2)c(C(=O)c2ccc(Cl)cc2)s1 | 3.16 nM
46 | O=C(NCCCN1CCOCC1)c1cc(-c2ccccc2)on1 | 5780 nM
47 | O=C(C=Cc1ccccc1O)c1ccccc1O | 2850 nM
48 | O=C(c1cn(Cc2ccccc2)nc1-c1ccccc1)N1CCN(c2ccccn2)CC1 | 999 nM
49 | CCN(CCCNC(=O)CCCOc1cc(=O)n(C)c2ccccc12)Cc1ccccc1 | 3420 nM
50 | CCN(CC)S(=O)(=O)c1ccc(N2CCOCC2)c(NC(=O)c2[nH]c(C)c(C(C)=O)c2C)c1 | 1860 nM
51 | CN1C(=O)C(=Cc2sc(=O)n(-c3ccccc3)c2N(C)C)C(=O)N(C)C1=O | 5320 nM
52 | Cc1ccc(C2=NN(C(=O)CSc3nccn3C)C(c3ccco3)C2)cc1 (stereo not given) | 6070 nM
53 | Cc1ccc(-c2nn3c(C)nnc3c3ccccc23)cc1S(=O)(=O)N1CCN(CCO)CC1 | 3870 nM
54 | CC(=O)Nc1cccc(-c2ccnc3c2CC(C)(C(=O)NCCc2ccccc2)O3)c1 (stereo not given) | 1370 nM

Row | Structure (SMILES) | AC26
55 | CN(C)Cc1c(C(=O)N/N=C/c2ccccc2OCc2c(F)cccc2Cl)nnn1-c1nonc1N | 4210 nM
56 | CCOc1ccccc1C1CC(=O)Nc2cc3c(cc21)OCO3 (stereo not given) | 4370 nM
57 | CCOC(=O)[C@H]1[C@H]2COc3ccc(Br)cc3[C@@H]2N2C(=O)c3cc(OC)c(OC)cc3NC(=O)[C@@]12C | 4040 nM
58 | O=C1CCNc2cc3ccccc3cc21 | 32.5 nM
59 | CC(C)Oc1ccccc1C1CC(=O)Nc2cc3c(cc21)OCCO3 (stereo not given) | 844 nM
60 | c1cnc2nc3c4ccccc4c4ccccc4c3nc2c1 | 10200 nM
61 | Cc1cc(NC(=O)NC(=O)c2ccccc2NC(=O)C(C)N)ccc1Oc1ncc(Br)cn1 (stereo not given) | 1060 nM
62 | CC(=O)N1N=C(c2ccc(NS(=O)(=O)c3ccccc3)cc2)CC1c1ccco1 (stereo not given) | 912 nM
63 | Cn1cnc(Sc2ncnc3nc[nH]c23)c1[N+](=O)[O-] | 1140 nM
64 | CC(=O)Nc1cc(-c2cccc(C(=O)N(C)C)c2)cn2c(-c3cccc(C(=O)N(C)C)c3)cnc12 | 897 nM
65 | CSCCOC(=O)c1[nH]c2c(c1C)C(=O)CC(c1ccco1)C2 (stereo not given) | 526 nM
66 | CN(C)/N=C/C=C1\CCC/C(=C\c2ccc(F)c(F)c2)C1=O | 966 nM
67 | O=C(NC1CCCCCC1)c1c2c(nc3ccccc13)CCN(Cc1ccccc1)C2 | 5800 nM
68 | COc1ccc(C(=O)c2cc([N+](=O)[O-])ccc2N2CCN(C)CC2)cc1 | 2330 nM
69 | C=CCn1cccc(/C=C/C(=O)c2ccc(C(C)(C)C)cc2)c1=S | 1290 nM
70 | N#Cc1c(-c2ccc(F)cc2)c(-c2ccc(F)cc2)nn(CCO)c1=O | 2080 nM
71 | C/C(=N/NC(=O)c1cccs1)c1ccc(NC(=O)COc2ccc(Cl)cc2Cl)cc1 | 6270 nM
72 | COc1ccccc1CCNCc1ccc(OC)c(OCc2ccccc2)c1 | 994 nM
73 | O=C(NCc1ccco1)c1nn2c(C(F)(F)F)cc(-c3cccs3)nc2c1Br | 3250 nM
74 | CC(=O)c1cccc(-c2ccnc3c2CC(C(=O)NCc2ccco2)O3)c1 (stereo not given) | 967 nM
75 | Cc1cc2oc(C(=O)Nc3c(C)n(C)n(-c4ccccc4)c3=O)c(C)c2cc1Cl | 781 nM
76 | COc1ccccc1NS(=O)(=O)c1ccc(C(=O)Nc2ncccc2O)cc1 | 7090 nM
77 | CC(=O)Nc1cccc(-c2ccnc3c2CC(C(=O)NCCc2ccccc2)O3)c1 (stereo not given) | 1910 nM
78 | CCOc1cc(CNc2ccc3cn[nH]c3c2)ccc1OC | 1550 nM
79 | COc1ccc(OC)c(Nc2nc(-c3c(C)nc4ncccn34)cs2)c1 | 2730 nM
80 | CN(C)c1ccc(CNC(=O)C2(C)Cc3c(-c4ccc5c(c4)OCO5)ccnc3O2)cc1 (stereo not given) | 2630 nM
81 | COc1ccc(C(=O)/C=C/c2ccccc2)c(O)c1 | 1520 nM

Row | Structure (SMILES) | AC26
82 | Cc1ccc(C)c(NC(=O)Cn2nnc(C(=O)NCc3ccco3)c2N)c1 | 9800 nM
83 | COc1ccc(C2=NOC(C(=O)NCc3ccc(F)cc3)C2)cc1OC (stereo not given) | 4460 nM
84 | COc1cc2c(cc1OC)C(=O)N1[C@H]3c4cc(C)ccc4OC[C@@H]3[C@H](c3ccccc3)[C@]1(C)C(=O)N2 | 387 nM
85 | COc1cc(/C=N/NC(=O)c2ccc(-c3ccccc3)cc2)cc(OC)c1OC | 1350 nM
86 | Cc1ccc2[nH]c(=O)c3cc(C(=O)NC(C)C)sc3c2c1 | 3990 nM
87 | CC(C)Oc1ccc(F)cc1-c1cc(C(=O)Nc2ccc(C(C)(C)C)cc2)[nH]n1 | 2040 nM
88 | COc1ccc(NC(=O)C2Cc3c(-c4cccc(NC(C)=O)c4)ccnc3O2)cc1OC (stereo not given) | 2270 nM
89 | COC(=O)c1sc(N)c(C(=O)OC)c1COC(=O)c1c(C)noc1C | 2130 nM
90 | N=c1c(S(=O)(=O)c2ccc(Cl)cc2)cc2c(=O)n3ccccc3nc2n1CCc1ccccc1 | 122 nM
91 | Cc1ccc(C(=O)N/C(=C/c2ccco2)C(=O)NCCc2c[nH]c3ccccc23)cc1 | 2670 nM
92 | O=CC1=C(c2ccccc2)Oc2ccccc2O1 | 10300 nM
93 | Cc1c(Cl)cccc1Nc1nc(N)nc(CN2CCc3ccccc3C2)n1 | 320 nM
94 | Cc1ccc(C(=O)Nc2ccc(NC(=O)c3cccs3)cc2)c(C)c1 | 8550 nM
95 | Cc1ccc(OC(=O)CCC(=O)Oc2ccc(C)cc2C)c(C)c1 | > 19500 nM (inactive)
96 | Cc1cccc2sc(NC(=O)c3cc(S(=O)(=O)N(C)C)ccc3N3CCCC3)nc12 | 157 nM
97 | CCCOc1ccc2ccccc2c1/C=N/n1c(C)nnc1-n1nc(C)cc1C | 503 nM
98 | COc1ccc(Cl)cc1NC(=O)Nc1ccc(C(=O)N2CCCC2)cc1 | 4030 nM
99 | CC(=O)c1cccc(-c2ccnc3c2CC(C(=O)NCC2CCOCC2)O3)c1 (stereo not given) | 2070 nM
100 | COc1ccccc1C(=O)Nc1nnc(CCc2ccccc2)s1 | 3720 nM
101 | CC(=O)c1cccc(-c2ccnc3c2CC(C(=O)NCc2cccs2)O3)c1 (stereo not given) | 1070 nM
102 | CCCCCCCCCCCCCCCCCCNc1ccn(C2OC(COP(=O)(O)OCC3OC(n4cc(F)c(=O)[nH]c4=O)CC3O)C(O)C2O)c(=O)n1 (stereo not given) | 3970 nM
103 | COc1cccc(N2CCN(C(=O)c3ccc(CS(=O)c4ccc(Cl)cc4)o3)CC2)c1 (stereo not given) | 234 nM
104 | C[C@H](O)[C@@H]1CN2CCc3c([nH]c4ccccc34)[C@@H]2C[C@@H]1N(C)C(=O)c1ccco1 | 408 nM
105 | O=C(Cc1ccc(-c2ccccc2)cc1)NCc1cccnc1 | 12400 nM
